# Like-named read-outs stand apart in the source and are kept apart here. Marks after values point to notes of the source that are not given here.
# Key:
# bone metastases = assay: Clinical outcome in patients (bone pain, energy, bone scan); format: in vivo, human; conditions: Patient 1
# Text: (§1) Patients were consenting adult patients with histologically/cytologically confirmed advanced hormone-refractory prostate cancer not curable by conventional therapies that fulfilled the standard phase 1 liver, renal and Karnofsky performance eligibility requirements. The patients also had to meet one of the two following requirements. A positive bone scan and/or imaging study for bone metastasis with accompanying bone pain had to be present with rising PSA values, identified in three consecutive PSA observations, following definitive surgery and/or radiation therapy and anti-androgen hormonal therapy. PSA levels (>10 ng/ml) and a positive bone scan and bone pain at time of initial diagnosis.
# HRPA cells = conditions: preclinical observations, Janssens and Boeynaems (2001); Fang et al. (1992); cited from earlier work
# [1] = ATP i.v. infusion dose escalation to maximally tolerated dose (present disclosure); format: in vivo, human; conditions: duration 8 hours
# Text: (§2) This regime was maintained until the maximally tolerated dose (MTD) was reached.
# as §1
# Average patient age was between 50 and 85 years of age. Patients were excluded if they met the standard phase 1 respiratory and cardiac exclusion criteria.
# ATP infusion therapy was as described above.
# [2] = Monitoring of patients for adverse effects / tolerability; format: in vivo, human
# Text: as §2
# [3] = test system: hormone-refractory prostate adenocarcinoma (HRPA); assay: Blood PSA response in hormone-refractory prostate cancer patients with bone metastasis; format: in vivo, human
# Description: Treatment of hormone-refractory prostate adenocarcinoma (HRPA) patients presents a complex combination of tumor and pain management. […] HRPA outcomes and PSA measurements were determined pre- and post-treatment within 25–45 days after Sm-153 administration.
# [formula] PSA decreases of greater than 50% from baseline are associated with improved survivals in prostate cancer patients [Zyskowski, et al. (2001) Australas Radiol. 45:39; Kelly, et al. (1993) J. Clin. Oncol. 11:607).
# The change in PSA was expressed as a ratio rather than a strict difference due to assumed relative changes. Furthermore, assumed multiplicative error provided that the variation of PSA levels increased with an increase in PSA levels. The combination of these two assumptions provided that the PSA responses be compared on the log scale. Furthermore, it is known that the log scale stabilizes the variance (Rosner, In: Fundamentals of Bio-statistics, 5th edition, Pacific Grove: Duxbury) and it has been observed that the variation in PSA among patients with prostate cancer is higher than in healthy (disease-free) controls.
# This regime was maintained until the maximally tolerated dose (MTD) was reached. […]
# [4] = cited from earlier work
structure (smiles),measurement,setting,value
"Nc1ncnc2c1ncn2[C@@H]1O[C@H](COP(=O)(O)OP(=O)(O)OP(=O)(O)O)[C@@H](O)[C@H]1O [ATP, Adenosine triphosphate]","energy levels, exercise and activity","bone metastases; eighth week, 100 μg/kg/min × 8 hours",improved energy levels at home and improved exercise and activity
same,bone pain,bone metastases; end of the eight weeks of ATP therapy,continued to have bone pain
same,effect on HRPA cells in vitro,HRPA cells,inhibits
same,MTD,"[1]; Study 2, present disclosure",75 µg/kg/min
same,MTD,"[1]; Study 3, present disclosure",100 µg/kg/min
same,tolerability,[2]; 8-hour infusion once weekly at 50 up to 100 μg/kg/minute,well tolerated by most patients
same,hematocrit NADIR,"[2]; Patient 1, 33% at start of trial, transfusion given at nadir",25%
same,side effects of ATP infusion,"[2]; Patient 1, eight weekly i.v. infusions",minor side effects
same,rate of PSA level increase during ATP treatments,"[3]; Patient 1, eight weekly i.v. ATP infusions, no Sm-153, PSA at start 2732 ng/ml",stabilized
same,PSA levels during ATP treatment,"[3]; three advanced prostate cancer patients, i.v. infused ATP",stabilized
same,MTD,"[4]; Study 1, Gaba (1990), incremental i.v. dose levels, each infusion 20 min.",125* μg/kg/min
same,MTD,"[4]; Study 4, Haskell et al. (1998), duration 96 hours",50 µg/kg/min
same,MTD,"[4]; Study 5, Agteresch et al. (2000), infused over 30 hours, start 20 μg/kg/min, increments of 10 every 30 minutes",65 to 75 µg/kg/min
same,MTD,"[4]; Study 6, Haskell et al. (1996), duration 96 hours",75 µg/kg/min
